Like-named read-outs stand apart in the source and are kept apart here.
Columns and labels:
[1] = test system: SARS-CoV-2; test: microbe, parasite or virus in culture; type: cell-based; conditions: Severe acute respiratory syndrome coronavirus 2, VeroE6/TMPRSS2, 72 h, 50% SARS-CoV-2 infected cell death inhibitory concentration, VeroE6/TMPRSS2 cells, 3 days culture
[2] = target: SARS-CoV-2 3CL protease (Severe acute respiratory syndrome coronavirus 2, UniProt P0DTD1); test: biochemical; conditions: 50% SARS-CoV-2 3CL protease inhibitory concentration, read-out: IC50

SMILES	EC50 ([1]; class symbols)	IC50 ([2]; given as class symbols)	EC50 ([1]; CellTiter-Glo 2.0)	IC50 ([2]; RapidFire MS)
CNc1nc2cc(F)c(Nc3nc(=O)n(-c4cncc(C)c4)c(=O)n3Cc3cc(F)c(F)cc3F)cc2s1 [II-0501]	< 1 µM	< 0.1 µM		
Cn1cc2cc(Nc3nc(=O)n(-c4cncc5c4COC5)c(=O)n3Cc3cc(F)c(F)c(F)c3)c(Cl)cc2n1 [II-0503]	1 to 10 µM	< 0.1 µM		
Cc1cncc(-n2c(=O)nc(Nc3cc4cn(C)nc4cc3F)n(Cc3cc(C#N)c(F)cc3C)c2=O)c1 [II-0504]	< 1 µM	< 0.1 µM		
O=c1[nH]cccc1Cn1c(=O)nc(Nc2cc3cn(CC(F)(F)F)nc3cc2Cl)n(Cc2cc(F)c(F)c(F)c2)c1=O [II-0505]	1 to 10 µM	< 0.1 µM		
Cc1cncc(-n2c(=O)nc(Nc3cc4cn(CC(F)F)nc4cc3F)n(Cc3cc(F)c(F)c(C#N)c3)c2=O)c1 [II-0506]	< 1 µM	< 0.1 µM		
N#CCn1cc2cc(Nc3nc(=O)n(Cc4ccc[nH]c4=O)c(=O)n3Cc3cc(F)c(F)c(F)c3)c(Cl)cc2n1 [II-0507]	1 to 10 µM	< 0.1 µM		
Cn1cnc(Cn2c(=O)nc(Nc3cc4oc(N)nc4cc3Cl)n(Cc3cc(F)c(F)c(Cl)c3)c2=O)n1 [II-0508]	1 to 10 µM	< 0.1 µM		
CNC(=O)Cn1cc2cc(Nc3nc(=O)n(-c4cncc5ccccc45)c(=O)n3Cc3cc(F)c(F)c(F)c3)c(Cl)cc2n1 [II-0509]	1 to 10 µM	< 0.1 µM		
CNc1nc2cc(Cl)c(Nc3nc(=O)n(-c4cncc(C)c4)c(=O)n3Cc3ccc(F)c(C#N)c3)cc2o1 [II-0512]	1 to 10 µM	< 0.1 µM		
N#Cc1cc(Cn2c(Nc3cc4cn(CC(F)F)nc4cc3F)nc(=O)n(-c3cncc(Cl)c3)c2=O)ccc1F [II-0513]	< 1 µM	< 0.1 µM		
Cn1cnc(Cn2c(=O)nc(Nc3cc4c(C(F)F)n(C)nc4cc3Cl)n(Cc3cc(F)c(F)cc3F)c2=O)n1 [II-0514]	1 to 10 µM	< 0.1 µM		
Cn1cnc(Cn2c(=O)nc(Nc3cc4cn(C)nc4cc3F)n(Cc3cc(Cl)c(F)cc3F)c2=O)n1 [II-0515]	1 to 10 µM	< 0.1 µM		
CNc1nc2cc(Cl)c(Nc3nc(=O)n(-c4cncc(Cl)c4)c(=O)n3Cc3ccc(F)c(C#N)c3)cc2o1 [II-0516]	1 to 10 µM	< 0.1 µM		
CNc1nc2cc(Cl)c(Nc3nc(=O)n(Cc4ncn(C)n4)c(=O)n3Cc3cc(F)c(F)cc3F)cc2o1 [II-0517]	1 to 10 µM	< 0.1 µM		
Cc1cncc(-n2c(=O)nc(Nc3cc4cn(CC(F)F)nc4cc3F)n(Cc3cc(F)c(F)c(F)c3)c2=O)c1 [II-0518]	1 to 10 µM	< 0.1 µM		
Cn1cnc(Cn2c(=O)nc(Nc3cc4cn(C)nc4cc3F)n(Cc3cc(F)c(F)cc3F)c2=O)n1 [II-0519]	1 to 10 µM	< 0.1 µM		
COc1cc(F)c(F)cc1Cn1c(Nc2cc3cn(C)nc3cc2Cl)nc(=O)n(-c2cncc(C)c2)c1=O [II-0520]	1 to 10 µM	< 0.1 µM		
Cc1cncc(-n2c(=O)nc(Nc3ccc4nn(CC(F)F)cc4c3)n(Cc3cc(C#N)ccc3C)c2=O)c1 [II-0521]			0.22 µM	0.0034 µM
Cn1cnc(Cn2c(=O)nc(Nc3cc4c(cc3Cl)nc3n4CCN3)n(Cc3cc(Cl)c(F)cc3F)c2=O)n1 [II-0522]			15 µM	0.0041 µM
Cn1cc2cc(Nc3nc(=O)n(-c4cncc(Cl)c4)c(=O)n3Cc3cc(C#N)ccc3Cl)ccc2n1 [II-0523]			0.24 µM	0.011 µM
Cc1cncc(-n2c(=O)nc(Nc3cc4sc(NCC(F)F)nc4cc3Cl)n(Cc3ccc(F)c(C#N)c3)c2=O)c1 [II-0524]	1 to 10 µM	< 0.1 µM		
Cn1cc2cc(Nc3nc(=O)n(-c4cncc(Cl)c4)c(=O)n3Cc3ccc(F)c(C#N)c3)c(F)cc2n1 [II-0525]			0.533 µM	0.016 µM
Cc1cncc(-n2c(=O)nc(Nc3cc4sc(NCC(F)(F)F)nc4cc3Cl)n(Cc3ccc(F)c(C#N)c3)c2=O)c1 [II-0526]	1 to 10 µM	< 0.1 µM		
Cn1cnc(Cn2c(=O)nc(Nc3cc4cn(C5CC5)nc4cc3Cl)n(Cc3cc(F)c(F)cc3F)c2=O)n1 [II-0527]	< 1 µM	< 0.1 µM		
Cc1cncc(-n2c(=O)nc(Nc3cc4cn(C)nc4cc3F)n(Cc3cc(F)c(F)cc3F)c2=O)c1 [II-0528]	< 1 µM	< 0.1 µM		

SMILES	EC50 ([1]; class symbols)	IC50 ([2]; given as class symbols)	EC50 ([1]; CellTiter-Glo 2.0)	IC50 ([2]; RapidFire MS)
Cn1cnc(Cn2c(=O)nc(Nc3cc4sc(N)nc4cc3Cl)n(Cc3cc(Cl)c(F)cc3F)c2=O)n1 [II-0529]	< 1 µM	< 0.1 µM		
Cc1cncc(-n2c(=O)nc(Nc3cc4cn(CC(F)F)nc4cc3Cl)n(Cc3cc(C#N)c(F)cn3)c2=O)c1 [II-0533]	1 to 10 µM	< 0.1 µM		
CNc1nc2cc(Cl)c(Nc3nc(=O)n(-c4cncc(C)c4)c(=O)n3Cc3cc(C#N)c(F)cn3)cc2s1 [II-0534]	1 to 10 µM	< 0.1 µM		
Cc1cncc(-n2c(=O)nc(Nc3cc4cn(C)nc4cc3Cl)n(Cc3cc(C#N)c(F)cn3)c2=O)c1 [II-0535]	< 1 µM	< 0.1 µM		
Cn1cnc(Cn2c(=O)nc(Nc3cc4sc(N)nc4cc3Cl)n(Cc3cc(F)c(F)cc3F)c2=O)n1 [II-0536]	1 to 10 µM	< 0.1 µM		
Cc1cncc(-n2c(=O)nc(Nc3cc4cn(C)nc4cc3Cl)n(Cc3cc(C#N)cnc3C)c2=O)c1 [II-0537]	1 to 10 µM	< 0.1 µM		
Cn1cc2cc(Nc3nc(=O)n(-c4cncc(Cl)c4)c(=O)n3Cc3cc(C#N)c(F)cn3)c(Cl)cc2n1 [II-0538]	1 to 10 µM	< 0.1 µM		
Cc1cncc(-n2c(=O)nc(Nc3cc4cn(C)nc4cc3Cl)n(Cc3ccc(F)c(C#N)n3)c2=O)c1 [II-0539]	1 to 10 µM	< 0.1 µM		
Cc1cncc(-n2c(=O)nc(Nc3cc4cn(C)nc4cc3Cl)n(Cc3cc(Cl)c(F)cn3)c2=O)c1 [II-0541]	< 1 µM	< 0.1 µM		
Cc1ccc(C#N)cc1Cn1c(Nc2cc3cn(C)nc3cc2Cl)nc(=O)n(-c2cncc(Cl)c2)c1=O [II-0543]			0.087 µM	0.0028 µM
Cc1cncc(-n2c(=O)nc(Nc3cc4cn(C(C)C)nc4cc3Cl)n(Cc3ccc(F)c(C#N)c3)c2=O)c1 [II-0544]	< 1 µM	< 0.1 µM		
CNc1nc2cc(Cl)c(Nc3nc(=O)n(-c4cncc(C)c4)c(=O)n3Cc3cc(C#N)ccc3Cl)cc2o1 [II-0545]			0.75 µM	0.0086 µM
CNc1nc2cc(Cl)c(Nc3nc(=O)n(-c4cncc(Cl)c4)c(=O)n3Cc3cc(C#N)ccc3C)cc2o1 [II-0546]	< 1 µM	< 0.1 µM		
CCn1cc2cc(Nc3nc(=O)n(Cc4ncn(C)n4)c(=O)n3Cc3cc(F)c(F)cc3F)c(Cl)cc2n1 [II-0548]			0.533 µM	0.014 µM
Cn1cnc(Cn2c(=O)nc(N3CCc4ccccc4CC3)n(Cc3cc(F)c(F)c(F)c3)c2=O)n1 [II-0550]			6.42 µM	1.1 µM
Cc1cncc(-n2c(=O)nc(Nc3cc4cn(C)nc4cc3Cl)n(Cc3cc(F)c(F)cc3OCC3CCC3)c2=O)c1 [II-0551]	< 1 µM	< 0.1 µM		
CC(=O)Nc1nc2cc(Cl)c(Nc3nc(=O)n(Cc4ncn(C)n4)c(=O)n3Cc3cc(Cl)c(F)cc3F)cc2s1 [II-0554]	1 to 10 µM	< 0.1 µM		
CC(=O)Nc1nc2cc(Cl)c(Nc3nc(=O)n(-c4cncc(C)c4)c(=O)n3Cc3ccc(F)c(C#N)c3)cc2s1 [II-0555]	1 to 10 µM	< 0.1 µM		
CNC(=O)Cn1cc2cc(Nc3nc(=O)n(-c4cncc5ccccc45)c(=O)n3Cc3cc(F)c(F)cc3F)c(Cl)cc2n1 [II-0556]	1 to 10 µM	< 0.1 µM		
CCn1cc2cc(Nc3nc(=O)n(-c4cncc(Cl)c4)c(=O)n3Cc3cc(C#N)c(F)cc3C)ccc2n1 [II-0559]			0.246 µM	0.0064 µM
CC(=O)Nc1nc2cc(Cl)c(Nc3nc(=O)n(Cc4ncn(C)n4)c(=O)n3Cc3cc(F)c(F)cc3F)cc2s1 [II-0560]	1 to 10 µM	< 0.1 µM		
Cn1cnc(Cn2c(=O)nc(Nc3cc4cn(CC5(NC(=O)OC(C)(C)C)CC5)nc4cc3Cl)n(Cc3cc(Cl)c(F)cc3F)c2=O)n1 [II-0562]	1 to 10 µM	< 0.1 µM		
CC(=O)Nc1nc2cc(Cl)c(Nc3nc(=O)n(-c4cncc(C)c4)c(=O)n3Cc3cc(F)c(F)cc3F)cc2s1 [II-0563]	1 to 10 µM	< 0.1 µM		
Cc1cncc(-n2c(=O)nc(Nc3cc4cn(CC(F)(F)F)nc4cc3Cl)n(Cc3cc(F)c(F)c(F)c3)c2=O)c1 [II-0564]	< 1 µM	< 0.1 µM		
Cn1cnc(Cn2c(=O)nc(Nc3cc4cn(CC5(NC(=O)OC(C)(C)C)CC5)nc4cc3Cl)n(Cc3cc(F)c(F)c(Cl)c3)c2=O)n1 [II-0565]	1 to 10 µM	< 0.1 µM		
